Assay results from PubChem BioAssay (NCI).
“And” between values parts separate entries of the source, which are not always exact repeats. Identical values can stand only once.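 The compound was tested at five concentrations on cells cultured in 96-well plates, with a 48-hour exposure period. GI50 = concentration required for 50% inhibition of growth. TGI: concentration producing complete growth inhibition.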

Columns and labels:
Assay in all cases: growth of human tumour cells (NCI), 48 h
[1] = test system: BT-549 breast
[2] = test system: EKVX NSCLC
[3] = test system: SNB-75 CNS
[4] = test system: HCT-15 colon
[5] = test system: CCRF-CEM leukemia
[6] = test system: A549 NSCLC
[7] = test system: HOP-92 NSCLC
[8] = test system: SF-268 CNS
[9] = test system: HCT-116 colon
[10] = test system: SN12C renal

| Compound | GI50 [1] [µM] | TGI [1] | GI50 [2] [µM] | TGI [2] | GI50 [3] [µM] | TGI [3] | GI50 [4] [µM] | TGI [4] [µM] | GI50 [5] [µM] | TGI [5] [µM] | GI50 [6] [µM] | TGI [6] | GI50 [7] [µM] | TGI [7] | GI50 [8] [µM] | TGI [8] [µM] | GI50 [9] [µM] | TGI [9] [µM] | GI50 [10] [µM] | TGI [10] [µM] |
| --- | --- | --- | --- | --- | --- | --- | --- | --- | --- | --- | --- | --- | --- | --- | --- | --- | --- | --- | --- | --- |
| Cn1ccc(=Nc2ccc(NC(=O)c3ccc(N=c4ccn(C)c5ccc([N+](=O)[O-])cc45)cc3)cc2)cc1 | 71.5 | > 100 µM | 55.1 | > 100 µM | 3.63 | 28.5 µM | > 100 | > 100 | > 100 | > 100 | 7.31 | > 100 µM | 42.4 | > 100 µM | 4.37 | 98.2 | 3.76 | > 100 | 5.09 | > 100 |
| O=C(O)c1cc2ccccc2c(N=Nc2c([N+](=O)[O-])cc([N+](=O)[O-])cc2S(=O)(=O)O)c1O | – | > 100 µM | – | > 100 µM | – | > 100 µM | – | > 100 | – | > 100 | – | > 100 µM | – | > 100 µM | – | > 100 | – | > 100 | – | > 100 |
| COc1cc(/C=C/C(=O)c2cc(F)c(Cl)cc2Cl)cc(OC)c1OC | 53.2 | > 100 µM | > 100 | > 100 µM | 56.3 | > 100 µM | 19.8 | 54.4 | 23.8 | 76.4 | 39.2 | > 100 µM | 25.9 | > 100 µM | 68.9 | > 100 | 12.6 | 25.1 | 27.7 | > 100 |
| C#CCN1CCN(C(=S)N/N=C(\C)c2ccccn2)CC1 | – | 3.29 µM and 3.25 µM | 0.471 | 3.52 µM and 6.91 µM | – | 6.35 µM and 12.7 µM | 0.019 | 4.19 | – | 2.14 | 0.273 | 8.09 µM and 2.16 µM | 3.43 | 5.13 µM and 5.16 µM | – | 16.5 | – | 1.22 | 2.39 | 11.4 |
| CCOC(=O)/C=C1\SC(=Nc2ccc(C#N)cc2)N(CCN2C(=O)/C(=C/C(=O)OCC)SC2=Nc2ccc(C#N)cc2)C1=O | 2.98 | 16.4 µM | 5.2 | 28.7 µM | 5.02 | 36.1 µM | 0.408 | 2.53 | 0.613 | 16.9 | 15.4 | 51.2 µM | 13.7 | 36.5 µM | 1.94 | 16.1 | 0.441 | 2.38 | 2.58 | 16.6 |
| C/C=C(\C)C(=O)O[C@@H]1C(O)[C@H]2OC(COC(=O)CCC(=O)CCCCCC[C@H](CCCCC)O[C@@H]3OC(C)[C@H](OC(C)=O)C(O)[C@H]3O2)[C@H]1OC(=O)/C=C/c1ccccc1 (stereo partly drawn) | 0.019 | 13.8 µM | < 0.0267 | > 87.9 µM | < 0.01 | 0.747 µM | 0.034 | > 100 | 0.408 | > 100 | < 0.01 | 32.3 µM | < 0.01 | 0.415 µM | 0.101 | 15.6 | < 0.01 | > 33.6 | 0.0101 | 24.1 |
| COC(=O)[C@]12CC[C@@H](C)[C@H](C)[C@@H]1C1=CC[C@@H]3[C@@]4(C)C(C=O)=C[C@@](C)(COC(C)=O)[C@@H]4[C@H](O)C[C@@]3(C)[C@]1(C)CC2 | 2.03 | 5.11 µM | 2.76 | 10.2 µM | 1.74 | 10.5 µM | 1.54 | 3.06 | 1.98 | 7.01 | 3.29 | 12.3 µM | 1.65 | 4.28 µM | 2.65 | 9.14 | – | – | 2.3 | 6.08 |
